This is an account of results in the NIST ThermoML archive (doi:10.1016/j.jct.2010.01.004).

The data set in a line: activity coefficient (dimensionless); of the first substance listed, at infinite dilution; xn = mol fraction of the nth substance listed. The note with it: Liquid, Chromatography, x1 = 0.

Numbers after ± are expanded uncertainties.

In the case of `Cc1ccccc1C` [1,2-dimethylbenzene] + CC(C)C[P+](C)(CC(C)C)CC(C)C.Cc1ccc(S(=O)(=O)[O-])cc1, the activity coefficient reads like this: (298.15 K) 2.31 ± 0.16; (308.15 K) 2.21 ± 0.15; (318.15 K) 2.18 ± 0.15; (328.15 K) 2.1 ± 0.14; (338.15 K) 2.06 ± 0.14; (348.15 K) 2.04 ± 0.14. Moreover, the activity coefficient was found to be 2.03 ± 0.14 (358.15 K) and 2.01 ± 0.14 (368.15 K).

As for `Cc1cccc(C)c1` [1,3-dimethylbenzene] + CC(C)C[P+](C)(CC(C)C)CC(C)C.Cc1ccc(S(=O)(=O)[O-])cc1, the activity coefficient (298.15 K) amounted to 2.68 ± 0.18; the activity coefficient (308.15 K) turned out to be 2.48 ± 0.17; the activity coefficient (318.15 K) is 2.44 ± 0.17; the activity coefficient (328.15 K) was 2.33 ± 0.16; the activity coefficient (338.15 K) turned out to be 2.36 ± 0.16; the activity coefficient (348.15 K) is 2.28 ± 0.16. Also, the activity coefficient stood at 2.27 ± 0.15 (358.15 K) and 2.23 ± 0.15 (368.15 K).

As for `Cc1ccc(C)cc1` [1,4-dimethylbenzene] + CC(C)C[P+](C)(CC(C)C)CC(C)C.Cc1ccc(S(=O)(=O)[O-])cc1, the activity coefficient came to 2.54 ± 0.17 (298.15 K); 2.44 ± 0.17 (308.15 K); 2.4 ± 0.16 (318.15 K); 2.23 ± 0.15 (328.15 K); 2.26 ± 0.15 (338.15 K); 2.23 ± 0.15 (348.15 K). Further, the activity coefficient came to 2.24 ± 0.15 (358.15 K) and 2.21 ± 0.15 (368.15 K).

Turning to `C=CCCCCC` [1-heptene] + CC(C)C[P+](C)(CC(C)C)CC(C)C.Cc1ccc(S(=O)(=O)[O-])cc1, the activity coefficient (298.15 K) came out at 19.2 ± 1.3, the activity coefficient (308.15 K) was 14.6 ± 1, the activity coefficient (318.15 K) is 11.9 ± 0.8 and the activity coefficient (328.15 K) stood at 9.62 ± 0.66.

As to `C#CCCCCC` [1-heptyne] + CC(C)C[P+](C)(CC(C)C)CC(C)C.Cc1ccc(S(=O)(=O)[O-])cc1, the activity coefficient (298.15 K) was found to be 2.57 ± 0.17, the activity coefficient (308.15 K) is 2.62 ± 0.18, the activity coefficient (318.15 K) was determined as 2.54 ± 0.17 and the activity coefficient (328.15 K) is 2.54 ± 0.17.

Turning to `C#CCCCC` [1-hexyne] + CC(C)C[P+](C)(CC(C)C)CC(C)C.Cc1ccc(S(=O)(=O)[O-])cc1, the activity coefficient is, setting by setting: (298.15 K) 2.69 ± 0.18; (308.15 K) 2.48 ± 0.17; (318.15 K) 2.32 ± 0.16; (328.15 K) 2.17 ± 0.15.

For the compound `C#CCCCCCC` [1-octyne] + CC(C)C[P+](C)(CC(C)C)CC(C)C.Cc1ccc(S(=O)(=O)[O-])cc1, the activity coefficient runs as follows: (298.15 K) 3.19 ± 0.22; (308.15 K) 3.08 ± 0.21; (318.15 K) 3.06 ± 0.21; (328.15 K) 3.04 ± 0.21.

With `C=CCCC` [1-pentene] + CC(C)C[P+](C)(CC(C)C)CC(C)C.Cc1ccc(S(=O)(=O)[O-])cc1, the activity coefficient by setting is: (298.15 K) 30.5 ± 2.1; (308.15 K) 20.7 ± 1.4; (318.15 K) 14.5 ± 1; (328.15 K) 9.91 ± 0.68.

With `C#CCCC` [1-pentyne] + CC(C)C[P+](C)(CC(C)C)CC(C)C.Cc1ccc(S(=O)(=O)[O-])cc1, the activity coefficient came out at 3.01 ± 0.2 (298.15 K), 2.55 ± 0.17 (308.15 K), 2.24 ± 0.15 (318.15 K) and 1.98 ± 0.13 (328.15 K).

In the case of `COC(C)(C)C` [2-methoxy-2-methylpropane] + CC(C)C[P+](C)(CC(C)C)CC(C)C.Cc1ccc(S(=O)(=O)[O-])cc1, the activity coefficient was found to be 17.1 ± 1.2 (298.15 K); 11 ± 0.8 (308.15 K); 8.26 ± 0.56 (318.15 K); 5.68 ± 0.39 (328.15 K); 5 ± 0.34 (338.15 K); 4.57 ± 0.31 (348.15 K). In addition, under “358.15 K”, the activity coefficient worked out at 4.16 ± 0.28.

Turning to `c1ccccc1` [benzene] + CC(C)C[P+](C)(CC(C)C)CC(C)C.Cc1ccc(S(=O)(=O)[O-])cc1, the activity coefficient (298.15 K) was found to be 1.53 ± 0.1; the activity coefficient (308.15 K) stood at 1.42 ± 0.09; the activity coefficient (318.15 K) was 1.35 ± 0.09; the activity coefficient (328.15 K) was found to be 1.28 ± 0.08; the activity coefficient (338.15 K) was 1.25 ± 0.08; the activity coefficient (348.15 K) is 1.21 ± 0.08. In addition, the activity coefficient reads like this: (358.15 K) 1.2 ± 0.08; (368.15 K) 1.18 ± 0.08.

For the compound `CCCCO` [butan-1-ol] + CC(C)C[P+](C)(CC(C)C)CC(C)C.Cc1ccc(S(=O)(=O)[O-])cc1, the activity coefficient turned out to be 0.322 ± 0.031 (318.15 K); 0.318 ± 0.031 (328.15 K); 0.319 ± 0.031 (338.15 K); 0.328 ± 0.032 (348.15 K); 0.33 ± 0.032 (358.15 K); 0.323 ± 0.032 (368.15 K).

As to `C1CCCCCC1` [cycloheptane] + CC(C)C[P+](C)(CC(C)C)CC(C)C.Cc1ccc(S(=O)(=O)[O-])cc1, the activity coefficient is 12.3 ± 0.8 (298.15 K), 9.79 ± 0.67 (308.15 K), 7.64 ± 0.52 (318.15 K) and 6.55 ± 0.45 (328.15 K).

On to `C1CCCCC1` [cyclohexane] + CC(C)C[P+](C)(CC(C)C)CC(C)C.Cc1ccc(S(=O)(=O)[O-])cc1, for which the activity coefficient is 22.5 ± 1.5 (298.15 K), 14.5 ± 1 (308.15 K), 10.5 ± 0.7 (318.15 K) and 7.67 ± 0.52 (328.15 K).

In the case of `C1CCCCCCC1` [cyclooctane] + CC(C)C[P+](C)(CC(C)C)CC(C)C.Cc1ccc(S(=O)(=O)[O-])cc1, the activity coefficient (298.15 K) turned out to be 10.5 ± 0.7, the activity coefficient (308.15 K) was found to be 8.54 ± 0.58, the activity coefficient (318.15 K) worked out at 7.48 ± 0.51 and the activity coefficient (328.15 K) is 6.67 ± 0.45.

Turning to `C1CCCC1` [cyclopentane] + CC(C)C[P+](C)(CC(C)C)CC(C)C.Cc1ccc(S(=O)(=O)[O-])cc1, the activity coefficient runs as follows: (298.15 K) 20.6 ± 1.4; (308.15 K) 13.5 ± 0.9; (318.15 K) 9.69 ± 0.66; (328.15 K) 6.79 ± 0.46.

Regarding `CCCCCCCCCC` [decane] + CC(C)C[P+](C)(CC(C)C)CC(C)C.Cc1ccc(S(=O)(=O)[O-])cc1, the activity coefficient is, setting by setting: (298.15 K) 33.3 ± 2.3; (308.15 K) 29.2 ± 2; (318.15 K) 26 ± 1.8; (328.15 K) 23.6 ± 1.6.

For `CCO` [ethanol] + CC(C)C[P+](C)(CC(C)C)CC(C)C.Cc1ccc(S(=O)(=O)[O-])cc1, the activity coefficient is, setting by setting: (308.15 K) 0.263 ± 0.03; (318.15 K) 0.259 ± 0.03; (328.15 K) 0.261 ± 0.03; (338.15 K) 0.262 ± 0.03; (348.15 K) 0.266 ± 0.03; (358.15 K) 0.268 ± 0.03. For the setting “368.15 K”, the activity coefficient stood at 0.266 ± 0.03.

Regarding `CCc1ccccc1` [ethylbenzene] + CC(C)C[P+](C)(CC(C)C)CC(C)C.Cc1ccc(S(=O)(=O)[O-])cc1, the activity coefficient (298.15 K) was 2.51 ± 0.17; the activity coefficient (308.15 K) was 2.37 ± 0.16; the activity coefficient (318.15 K) stood at 2.33 ± 0.16; the activity coefficient (328.15 K) turned out to be 2.25 ± 0.15; the activity coefficient (338.15 K) is 2.2 ± 0.15; the activity coefficient (348.15 K) was found to be 2.17 ± 0.15. Besides, the activity coefficient is, setting by setting: (358.15 K) 2.16 ± 0.15; (368.15 K) 2.09 ± 0.14.

Regarding `CCCCCCC` [heptane] + CC(C)C[P+](C)(CC(C)C)CC(C)C.Cc1ccc(S(=O)(=O)[O-])cc1, the activity coefficient is 35.2 ± 2.4 (298.15 K), 26.4 ± 1.8 (308.15 K), 20.8 ± 1.4 (318.15 K) and 16.1 ± 1.1 (328.15 K).
